Measurements as given in US20100273783A1, “Compositions and Methods for Treating and Preventing Overactive Bladder and Conditions Associated Therewith” (OPTMED, INC., priority 2009, published 2010).
Like-named read-outs stand apart in the source and are kept apart here.

How the values were obtained:
[1] = cited from earlier work; for adverse effects stated in the background text: no dose given
M-1 receptors = target: T1, M-1 receptors (Homo sapiens, UniProt P11229); details: cited from earlier work
T1 sequence (P11229 1-460): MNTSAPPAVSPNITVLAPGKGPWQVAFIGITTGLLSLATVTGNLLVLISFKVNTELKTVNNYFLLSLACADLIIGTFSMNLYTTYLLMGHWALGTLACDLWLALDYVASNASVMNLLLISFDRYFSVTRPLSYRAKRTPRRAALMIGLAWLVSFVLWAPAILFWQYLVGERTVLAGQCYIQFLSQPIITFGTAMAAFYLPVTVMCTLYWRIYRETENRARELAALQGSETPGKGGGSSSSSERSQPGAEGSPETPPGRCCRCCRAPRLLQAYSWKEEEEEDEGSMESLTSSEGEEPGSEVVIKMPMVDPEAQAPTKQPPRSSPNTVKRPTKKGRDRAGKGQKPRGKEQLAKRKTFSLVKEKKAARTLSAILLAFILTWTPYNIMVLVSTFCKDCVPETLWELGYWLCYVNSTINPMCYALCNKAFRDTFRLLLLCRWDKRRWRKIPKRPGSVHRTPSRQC

anesthetized rats = experiment: Cystometries (isovolumetric bladder contractions) in anesthetized rats; format: in vivo
Procedure: Effect of diazepam administered intravenously and intravaginally on cystometries in anesthetized rats.
Methods: Female rats were anesthetized with urethane (1.3 g/kg intraperitoneally) given as a divided dose of 80% initially and 20% 15 minutes later. Body temperature was maintained at 37±2° C. throughout the experiment. A catheter was inserted into the bladder through the urethra. Then, the urethra was ligated at the level of the urinary meatus. After an abdominal incision, the ureters were also ligated. The jugular vein was catheterized to allow administration of test compounds. The bladder catheter was connected via a T-tube to a strain gauge to measure intravesicular pressure. Isovolumetric bladder contractions were induced by stepwise injections of physiological saline at room temperature (100 μl every 5 min) until stable rhythmic bladder contractions occurred. After stabilization and a control period of at least 30 min, characterized by stable and reproducible bladder contractions (used as basal values), test substance or vehicle was administered i.v. (as a bolus under a volume of 200 μl) or i.vag. (under a volume of 100 μl using a syringe). The drug effects were evaluated for 1 hour following the end of administration. Each animal received one dose of one test substance.

overactive bladder (OAB) = experiment: Case reports of subjects with OAB treated with local diazepam; format: in vivo, human
Procedure: A person had been suffering from symptoms consistent with OAB for several months. Following a confirmatory diagnosis of OAB, the subject was instructed to use vaginal suppositories containing 20 mg of diazepam in a glycerine base three times a day. […] The subject continues to do well on a maintenance dose of 20 mg once or twice a day.
A person had been suffering from symptoms consistent with OAB for several months. A diagnosis of OAB was confirmed by an urologist. A nurse then administered intraurethrally to the subject 2 ml of a gel formulation containing 10 mg/ml of diazepam in 2% methylcellulose, providing a total dose of 20 mg of diazepam. […] This subject is able to treat themself at home using the same type of formulation and the same route of administration up to 3 times per day as needed.
His symptoms were not relieved with high doses of oral diazepam but were well-controlled by intraurethral instillations of 2 ml of diazepam in a gel formulation containing 10 mg/ml of diazepam in hydroethylcellulose, providing a total of 20 mg of diazepam administered at bedtime.
A person with advanced dementia suffered from OAB symptoms including nocturia and urge incontinence. Despite the use of incontinence pads, the subject would frequently arise throughout the night without requesting assistance to go the bathroom. This led to numerous falls.

[2] = in vivo; cited from earlier work
[3] = intravaginal, vs basal values, through 30 minutes post administration
[4] = Example 6, intraurethral 1 ml gel 20 mg/ml in 3% hydroxyethylcellulose three times per day

SMILES: NC(=O)C(c1ccccc1)(c1ccccc1)[C@@H]1CCN(CCc2ccc3c(c2)CCO3)C1 [darifenacin]
- Adverse Events ([1]; 7.5 mg per day, constipation): constipation
- Adverse Events ([1]; 7.5 mg per day, dry mouth): dry mouth
- Adverse Events ([1]; 15 mg per day, constipation): constipation
- Adverse Events ([1]; 15 mg per day, dry mouth): dry mouth
- Adverse Events ([1]; 15 mg per day, dyspepsia): dyspepsia
- affinity for M-1 receptors (M-1 receptors): reduced affinity for M-1 receptors

SMILES: CN1C(=O)CN=C(c2ccccc2)c2cc(Cl)ccc21 [diazepam, 7-chloro-1,3-dihydro-1-methyl-5-phenyl-2H-1,4-benzodiazepin-2-one]
- reductions in micturition frequency and amplitude, intravaginal compared with intravenous (anesthetized rats; intravaginal vs intravenous administration): comparable to those achieved by intraveneous administration
- micturition amplitude (threshold for voiding) (anesthetized rats; [3]): significant reductions
- micturition frequency (anesthetized rats; [3]): significant reductions
- symptoms of urgency, frequency and incontinence (overactive bladder (OAB); Example 3, person, vaginal suppositories 20 mg in glycerine base three times a day): greatly reduced
- cognitive impairment (overactive bladder (OAB); Example 3, vaginal suppositories 20 mg in glycerine base three times a day): No cognitive impairment was observed or reported
- cognitive impairment (overactive bladder (OAB); Example 4, intraurethral 2 ml gel 10 mg/ml in 2% methylcellulose (20 mg)): without causing any observable cognitive impairment
- OAB symptoms (overactive bladder (OAB); Example 4, person, intraurethral 2 ml gel 10 mg/ml in 2% methylcellulose (20 mg)): reduced OAB symptoms significantly
- adverse effects (overactive bladder (OAB); Example 5, intraurethral 2 ml gel 10 mg/ml (20 mg) at bedtime): did not suffer any adverse effects
- symptoms (nocturia, nighttime urinary incontinence) (overactive bladder (OAB); Example 5, intraurethral 2 ml gel 10 mg/ml in hydroethylcellulose (20 mg) at bedtime): well-controlled
- symptoms (nocturia, nighttime urinary incontinence) (overactive bladder (OAB); Example 5, person, high doses of oral diazepam): not relieved
- adverse effects (overactive bladder (OAB); [4]): no apparent adverse effects
- cognitive impairment (overactive bladder (OAB); [4]): without causing cognitive impairment
- daytime urgency (overactive bladder (OAB); [4]): reduced daytime urgency
- nighttime falls (overactive bladder (OAB); [4]): near-absence of nighttime falls
- nocturia (sleep through the night) (overactive bladder (OAB); [4]): able to sleep in bed throughout the night without arising to urinate
- cognitive impairments (overactive bladder (OAB); Example 6, person, oral antimuscarinic and oral diazepam): led to cognitive impairments which increased the number of falls from bed

SMILES: CC(C)C(=O)Oc1ccc(CO)cc1[C@H](CCN(C(C)C)C(C)C)c1ccccc1 [fesoterodine]
- Adverse Events ([1]; 4 mg or 8 mg QD, constipation): constipation
- Adverse Events ([1]; 4 mg or 8 mg QD, dry mouth): dry mouth
- Adverse Events ([1]; 4 mg or 8 mg QD, urinary tract infection): urinary tract infection
- adverse effects stated in the background text [1]: associated with constipation, dry mouth and sometimes urinary tract infection

SMILES: CCN(CC)CC#CCOC(=O)C(O)(c1ccccc1)C1CCCCC1 (stereo not drawn) [oxybutynin chloride]
- Adverse Events ([1]; 3.9 mg transdermal per day, dry mouth): dry mouth
- Adverse Events ([1]; 3.9 mg transdermal per day, erythema): erythema
- Adverse Events ([1]; 3.9 mg transdermal per day, pruritis): pruritis
- adverse effects stated in the background text [1]: highly associated with adverse cognitive effects and effects on sleep architecture and quality

SMILES: O=C(O[C@H]1C[C@H]2CC[C@@H](C1)[N+]21CCCC1)C(O)(c1ccccc1)c1ccccc1 [trospium chloride]
- Adverse Events ([1]; 20 mg × 2 per day, constipation): constipation
- Adverse Events ([1]; 20 mg × 2 per day, dry mouth): dry mouth
- fraction excreted completely active [2]: 60%
